Reference: patent publication US20170022171A1, “2,5-DISUBSTITUTED CYCLOPENTANECARBOXYLIC ACIDS AND THEIR USE” (Bayer Pharma Aktiengesellschaft, priority 2014, published 2017)

Assays:
Assay type in all cases: biochemical
MMP-16 = target: T1, MMP-16 (Homo sapiens, UniProt P51512); assay: In vitro MMP-16 inhibition test
T1 construct: purchased R&D Systems 1785-MP
Text: (§1) The MMP-mediated amidolytic cleavage of a suitable peptide substrate leads to an increase in fluorescent light here too. The signal intensity of the fluorescent light is directly proportional to the enzyme activity. The active concentration of a test compound at which half the enzyme is inhibited (50% signal intensity of the fluorescent light) is reported as the IC50 value.
Recombinant MMP-16 (from R&D Systems, 1785-MP) is enzymatically activated in accordance with the manufacturer's instructions using recombinant furin (from R&D Systems, 1503-SE). 1 μl of the test compound to be analysed (as a solution in DMSO, suitable concentrations e.g. 1 nM to 30 μM) is pipetted into 24 μl of activated enzyme (final concentration e.g. 1 nM) in reaction buffer (50 mM Tris/HCl pH 7.5, 10 mM CaCl2, 150 mM NaCl, 0.05% Brij®-35) in a white 384-hole microtiter plate (MTP). The enzymatic reaction is started by adding the intramolecularly quenched Mca-Lys-Pro-Leu-Gly-Leu-Dpa(Dnp)-Ala-Arg-NH2 substrate (final concentration, for example, 5 μM; R&D Systems, ES-010), so as to result in a total test volume of 50 The course of the MMP-16 reaction is measured by measuring the fluorescence intensity (excitation 320 nm, emission 410 nm) over a suitable period of time (for example over 120 min at a temperature of 32° C.).

MMP-13 = target: T2, MMP-13 (Homo sapiens, UniProt P45452); assay: In vitro MMP-13 inhibition test
T2 construct: purchased R&D Systems 511-MP
Text: as §1
(§2) Recombinant MMP-13 (from R&D Systems, 511-MP) is chemically activated in accordance with the manufacturer's instructions using APMA. 1 μl of the test compound to be analysed (as a solution in DMSO, suitable concentrations, for example, 1 nM to 30 μM) is pipetted into 24 μl of activated enzyme (final concentration, for example, 0.1 nM) in reaction buffer (50 mM Tris/HCl pH 7.5, 10 mM CaCl2, 150 mM NaCl, 0.05% Brij®-35) in a white 384-hole microtiter plate (MTP). The enzymatic reaction is started by adding the intramolecularly quenched Mca-Pro-Leu-Gly-Leu-Dpa(Dnp)-Ala-Arg-NH2 substrate (final concentration, for example, 10 μM; R&D Systems, ES-001), so as to result in a total test volume of 50 The course of the MMP-13 reaction is measured by measuring the fluorescence intensity (excitation 320 nm, emission 410 nm) over a suitable period of time (for example over 120 min at a temperature of 32° C.).

MMP-8 = target: T3, MMP-8 (Homo sapiens, UniProt P22894); assay: In vitro MMP-8 inhibition test
T3 construct: purchased R&D Systems 908-MP
Text: as §1
(§3) Recombinant MMP-8 (from R&D Systems, 908-MP) is chemically activated in accordance with the manufacturer's instructions using APMA. 1 μl of the test compound to be analysed (as a solution in DMSO, suitable concentrations, for example, 1 nM to 30 μM) is pipetted into 24 μl of activated enzyme (final concentration, for example, 0.5 nM) in reaction buffer (50 mM Tris/HCl pH 7.5, 10 mM CaCl2, 150 mM NaCl, 0.05% Brij®-35) in a white 384-hole microtiter plate (MTP). The enzymatic reaction is started by adding the intramolecularly quenched Mca-Pro-Leu-Gly-Leu-Dpa(Dnp)-Ala-Arg-NH2 substrate (final concentration, for example, 10 μM; R&D Systems, ES-001), so as to result in a total test volume of 50 μl. The course of the MMP-8 reaction is measured by measuring the fluorescence intensity (excitation 320 nm, emission 410 nm) over a suitable period of time (for example over 120 min at a temperature of 32° C.).

MMP-3 = target: T4, MMP-3 (Homo sapiens, UniProt P08254); assay: In vitro MMP-3 inhibition test
T4 construct: purchased R&D Systems 513-MP
Text: as §1
as §2, with “MMP-3” for “MMP-13”, “513-MP)” for “511-MP)”, “2” for “0.1”, “Mca-Arg-Pro-Lys-Pro-Val-Glu-Nval-Trp-Arg-Lys(Dnp)-NH2” for “Mca-Pro-Leu-Gly-Leu-Dpa(Dnp)-Ala-Arg-NH2”, “ES-002),” for “ES-001),”

MMP-10 = target: T5, MMP-10 (Homo sapiens, UniProt P09238); assay: In vitro MMP-10 inhibition test
T5 construct: purchased R&D Systems 910-MP
Text: as §1
as §3, with “MMP-10” for “MMP-8”, “910-MP)” for “908-MP)”, “2” for “0.5”, “Mca-Arg-Pro-Lys-Pro-Val-Glu-Nval-Trp-Arg-Lys(Dnp)-NH2” for “Mca-Pro-Leu-Gly-Leu-Dpa(Dnp)-Ala-Arg-NH2”, “ES-002),” for “ES-001),”

T1 sequence (P51512 120-564 limits assumed): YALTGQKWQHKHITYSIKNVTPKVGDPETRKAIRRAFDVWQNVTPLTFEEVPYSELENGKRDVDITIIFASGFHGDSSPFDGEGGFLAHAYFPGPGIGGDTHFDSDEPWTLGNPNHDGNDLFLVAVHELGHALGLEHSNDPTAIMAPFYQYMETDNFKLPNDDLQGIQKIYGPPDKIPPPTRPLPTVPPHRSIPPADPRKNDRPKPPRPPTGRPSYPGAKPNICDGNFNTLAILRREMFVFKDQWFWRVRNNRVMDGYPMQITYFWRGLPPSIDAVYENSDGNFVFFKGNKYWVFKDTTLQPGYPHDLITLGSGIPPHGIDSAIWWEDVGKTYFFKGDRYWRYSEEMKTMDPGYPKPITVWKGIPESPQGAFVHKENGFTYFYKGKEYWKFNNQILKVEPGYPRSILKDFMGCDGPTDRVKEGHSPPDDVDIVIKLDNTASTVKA
T4 sequence (P08254 100-477): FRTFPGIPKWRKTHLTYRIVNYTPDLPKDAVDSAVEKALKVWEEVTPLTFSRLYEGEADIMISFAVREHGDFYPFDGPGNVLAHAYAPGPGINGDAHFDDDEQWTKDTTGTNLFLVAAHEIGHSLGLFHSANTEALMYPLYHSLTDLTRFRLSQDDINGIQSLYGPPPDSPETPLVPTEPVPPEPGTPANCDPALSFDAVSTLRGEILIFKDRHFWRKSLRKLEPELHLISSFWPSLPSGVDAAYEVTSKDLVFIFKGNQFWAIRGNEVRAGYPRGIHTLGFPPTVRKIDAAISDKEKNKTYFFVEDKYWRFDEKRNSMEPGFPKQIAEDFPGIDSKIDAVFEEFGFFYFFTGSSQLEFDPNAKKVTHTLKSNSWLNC
T3 sequence (P22894 101-467): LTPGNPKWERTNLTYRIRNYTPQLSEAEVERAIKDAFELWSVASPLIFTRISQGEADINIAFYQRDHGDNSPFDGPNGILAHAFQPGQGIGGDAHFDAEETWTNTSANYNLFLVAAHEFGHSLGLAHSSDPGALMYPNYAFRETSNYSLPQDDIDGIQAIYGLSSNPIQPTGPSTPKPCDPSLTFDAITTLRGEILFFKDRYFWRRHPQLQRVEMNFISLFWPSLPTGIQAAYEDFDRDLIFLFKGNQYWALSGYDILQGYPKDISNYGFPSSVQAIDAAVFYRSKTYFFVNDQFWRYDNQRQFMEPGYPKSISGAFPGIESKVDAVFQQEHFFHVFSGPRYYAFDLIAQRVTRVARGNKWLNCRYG
T5 sequence (P09238 99-476): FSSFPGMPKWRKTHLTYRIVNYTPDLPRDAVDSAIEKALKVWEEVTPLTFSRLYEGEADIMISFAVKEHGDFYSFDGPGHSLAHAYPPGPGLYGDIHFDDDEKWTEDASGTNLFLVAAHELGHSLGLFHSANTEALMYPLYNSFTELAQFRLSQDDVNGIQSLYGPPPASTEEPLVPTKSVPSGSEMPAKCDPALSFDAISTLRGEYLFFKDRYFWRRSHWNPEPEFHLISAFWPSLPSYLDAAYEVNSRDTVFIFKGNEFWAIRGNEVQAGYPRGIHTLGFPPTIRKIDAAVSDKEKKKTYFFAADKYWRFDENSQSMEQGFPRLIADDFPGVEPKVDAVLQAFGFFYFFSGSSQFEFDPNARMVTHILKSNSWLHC

Structure (SMILES) | IC50 (MMP-16) [nM] | IC50 (MMP-13) [nM] | IC50 (MMP-8) [nM] | IC50 (MMP-3) [nM] | IC50 (MMP-10) [nM]
O=C(O)[C@H]1[C@H](Cn2nnc3ccc(C(F)(F)F)cc3c2=O)CC[C@@H]1C(=O)c1ccc(SCc2ccc(Cl)c(Cl)c2)cc1 (racemic) [Example 79, (+/−)-(1RS,2RS,5SR)-2-{4-[(3,4-Dichlorobenzyl)sulphanyl]benzoyl}-5-{[4-oxo-6-(trifluoromethyl)-1,2,3-benzotriazin-3(4H)-yl]methyl}cyclopentanecarboxylic acid] | > 40000 | 2700 | 280 | 800 | 310
CCCCCSc1ccc(C(=O)[C@H]2CC[C@@H](Cn3nnc4ccc(C(F)(F)F)cc4c3=O)[C@@H]2C(=O)O)cc1 (racemic) [Example 88, (+/−)-(1RS,2SR,5RS)-2-{[4-Oxo-6-(trifluoromethyl)-1,2,3-benzotriazin-3(4H)-yl]methyl}-5-[4-(pentylsulphanyl)benzoyl]cyclopentanecarboxylic acid] | 670 | 230 | 6.2 | 96 | 22
Cc1ccc2nnn(C[C@@H]3CC[C@H](C(=O)c4ccc(OCc5ccccc5)cc4)[C@H]3C(=O)O)c(=O)c2c1 (racemic) [Example 91, (+/−)-(1RS,2RS,5SR)-2-[4-(Benzyloxy)benzoyl]-5-[(6-methyl-4-oxo-1,2,3-benzotriazin-3(4H)-yl)methyl]cyclopentanecarboxylic acid] | 1700 | 50 | 3 | 190 | 21
Cc1cccc(COc2ccc(C(=O)[C@H]3CC[C@@H](Cn4nnc5ccc(C)cc5c4=O)[C@@H]3C(=O)O)cc2)c1 (racemic) [Example 97, (+/−)-(1RS,2RS,5SR)-2-{4-[(3-Methylbenzyl)oxy]benzoyl}-5-[(6-methyl-4-oxo-1,2,3-benzotriazin-3(4H)-yl)methyl]cyclopentanecarboxylic acid] | 4500 | 1500 | 310 | 2000 | 160
Cc1ccc2nnn(C[C@@H]3CC[C@H](C(=O)c4ccc(OCc5cccc(C(F)(F)F)c5)cc4)[C@H]3C(=O)O)c(=O)c2c1 (racemic) [Example 100, (+/−)-(1RS,2SR,5RS)-2-[(6-Methyl-4-oxo-1,2,3-benzotriazin-3(4H)-yl)methyl]-5-(4-{[3-(trifluoromethyl)benzyl]oxy}benzoyl)cyclopentanecarboxylic acid] | 970 | 360 | 43 | 1500 | 160
Cc1ccc2nnn(C[C@@H]3CC[C@H](C(=O)c4ccc(OCc5cccc(Cl)c5)cc4)[C@H]3C(=O)O)c(=O)c2c1 (racemic) [Example 103, (+/−)-(1RS,2RS,5SR)-2-{4-[(3-Chlorobenzyl)oxy]benzoyl}-5-[(6-methyl-4-oxo-1,2,3-benzotriazin-3(4H)-yl)methyl]cyclopentanecarboxylic acid] | 14000 | 250 | 41 | 340 | 35
COc1cccc(COc2ccc(C(=O)[C@H]3CC[C@@H](Cn4nnc5ccc(C)cc5c4=O)[C@@H]3C(=O)O)cc2)c1 (racemic) [Example 106, (+/−)-(1RS,2RS,5SR)-2-{4-[(3-Methoxybenzyl)oxy]benzoyl}-5-[(6-methyl-4-oxo-1,2,3-benzotriazin-3(4H)-yl)methyl]cyclopentanecarboxylic acid] | 190 | 120 | 11 | 450 | 39
Cc1ccc2nnn(C[C@@H]3CC[C@H](C(=O)c4ccc(OCc5cccc(OC(F)(F)F)c5)cc4)[C@H]3C(=O)O)c(=O)c2c1 (racemic) [Example 109, (+/−)-(1RS,2SR,5RS)-2-[(6-Methyl-4-oxo-1,2,3-benzotriazin-3(4H)-yl)methyl]-5-(4-{[3-(trifluoromethoxy)benzyl]oxy}benzoyl)cyclopentanecarboxylic acid] | 3200 | 190 | 87 | 840 | 100
CCCCCOc1ccc(C(=O)[C@H]2CC[C@@H](Cn3nnc4ccc(C)cc4c3=O)[C@@H]2C(=O)O)cc1 (racemic) [Example 123, (+/−)-(1RS,2SR,5RS)-2-[(6-Methyl-4-oxo-1,2,3-benzotriazin-3(4H)-yl)methyl]-5-[4-(pentyloxy)benzoyl]cyclopentanecarboxylic acid] | 11000 | 230 | 11 | 540 | 81
O=C(O)[C@@H]1[C@@H](Cn2nnc3ccc(C(F)(F)F)cc3c2=O)CC[C@H]1C(=O)c1ccc(OCc2ccc(F)cc2)cc1 (single isomer, unassigned) [Example 13, (+)-(1RS,2RS,5SR)-2-{4-[(4-Fluorobenzyl)oxy]benzoyl}-5-{[4-oxo-6-(trifluoromethyl)-1,2,3-benzotriazin-3(4H)-yl]methyl}cyclopentanecarboxylic acid] | 170 | 33 | 0.88 | 62 | 22
Cc1cccc(COc2ccc(C(=O)[C@@H]3CC[C@H](Cn4nnc5ccc(C(F)(F)F)cc5c4=O)[C@H]3C(=O)O)cc2)c1 (single isomer, unassigned) [Example 16, (+)-(1RS,2RS,5SR)-2-{4-[(3-Methylbenzyl)oxy]benzoyl}-5-{[4-oxo-6-(trifluoromethyl)-1,2,3-benzotriazin-3(4H)-yl]methyl}cyclopentanecarboxylic acid] | 1700 | 1000 | 65 | 350 | 37
